Laboratory results reported in US9751853B2, “Solid forms of 3-(5-amino-2-methyl-4-oxo-4H-quinazolin-3-yl)-piperidine-2,6-dione, and their pharmaceutical compositions and uses” (Celgene Corporation, priority 2011, dated 2017).
“Also recorded” adds a separate entry of the source. Like-named read-outs stand apart in the source and are kept apart here.

Experiments:
[1] = Dynamic Vapor Sorption (moisture sorption); type: physicochemical
Description: Dynamic Vapor Sorption (DVS): Hygroscopicity was determined on a Surface Measurement Systems DVS. Typically, a sample of about 2-10 mg was loaded into the DVS instrument sample pan. The sample was analyzed on a DVS automated sorption analyzer at room temperature. The relative humidity was increased from 0 to 95% RH at 10% RH step, then at 95% RH. The relative humidity was then decreased in a similar manner to accomplish a full adsorption/desorption cycle.

[2] = Approximate solubility in test solvents (visual/gravimetric); type: physicochemical; settings: thermodynamic from solid
Description: Solubility: A weighed sample of Compound A hydrochloride (about 50 mg) was treated with a known volume of a test solvent. The solvents used were either reagent or HPLC grade. The resulting mixture was agitated for at least 24 hours at about 25° C. If all of the solids appeared to be dissolved by visual inspection, the estimated solubilities were calculated based on the total volume of solvent used to give a complete solution. The actual solubilities may be greater than those calculated due to the use of large amount of solvent or to a slow rate of dissolution. If solids were present, the solubility was measured gravimetrically. A known volume of filtrate was evaporated to dryness and the weight of the residue was measured.

[3] = Equilibration/slurry experiments, solid form by XRPD; type: physicochemical
Description: (§1) Equilibration/Slurry and Evaporation: Equilibration and evaporation experiments were carried out by adding an excess of Compound A hydrochloride to about 2 mL of a test solvent. The resulting mixture was agitated for at least 24 hrs at about 25° C. or about 50° C. Upon reaching equilibrium, the saturated solution was removed and allowed to evaporate slowly in an open vial under nitrogen at about 25° C. and about 50° C., respectively. The solids resulting from the equilibration were filtered and dried in the air.
(§2) X-ray Powder Diffraction (XRPD): XRPD analysis was conducted on a Thermo ARL X'TRA™ X-ray powder diffractometer using Cu Kα radiation at 1.54 Å. The instrument was equipped with a fine focus X-ray tube. The voltage and amperage of X-ray generator were set at 45 kV and 40 mA, respectively. The divergence slices were set at 4 mm and 2 mm and the measuring slices were set at 0.5 mm and 0.2 mm. Diffracted radiation was detected by a peltier-cooled Si(Li) solid-state detector. A theta-two theta continuous scan at 2.40°/min (0.5 sec/0.02° step) from 1.5°2θ to 40°2θ was used. A sintered alumina standard was used to check the peak position. In general, positions of XRPD peaks are expected to individually vary on a measurement-by-measurement basis by about +0.2°2θ. In general, as understood in the art, two XRPD patterns match one another if the characteristic peaks of the first pattern are located at approximately the same positions as the characteristic peaks of the second pattern. As understood in the art, determining whether two XRPD patterns match or whether individual peaks in two XRPD patterns match may require consideration of individual variables and parameters such as, but not limited to, preferred orientation, phase impurities, degree of crystallinity, particle size, variation in diffractometer instrument setup, variation in XRPD data collection parameters, and/or variation in XRPD data processing, among others. The determination of whether two patterns match may be performed by eye and/or by computer analysis.

[4] = Chemical stability upon storage
[5] = Evaporation experiments, solid form by XRPD; type: physicochemical
Description: as §1, §2

[6] = Cooling recrystallization, solid form by XRPD; type: physicochemical; settings: no antisolvent
Description: Cooling Recrystallization: The selected solvents (THF/water, MeCN/water, MeOH/0.1N HCl, and EtOH/0.1N HCl) were saturated with Compound A hydrochloride at about 50-70° C. Once the solids were completely dissolved, the solution was rapidly cooled by placing into a refrigerator (about 0-5° C.). Solids were isolated after 1 to 3 days.
as §2

Which results are given for `Cc1nc2cccc(N)c2c(=O)n1C1CCC(=O)NC1=O.Cl` (stereo not shown) [Form A1, 3-(5-amino-2-methyl-4-oxo-4H-quinazolin-3-yl)-piperidine-2,6-dione hydrochloride]?
hygroscopicity ([1]; DVS 0 to 95% RH): non-hygroscopic; XRPD after full adsorption/desorption cycle ([1]; after DVS cycle): unchanged; mass change relative to the dry mass ([1]; relative humidity increased from 0 to 95%): 0.15%; solubility ([2]; aqueous with cosolvent or surfactant or cyclodextrin, EtOH/water (1:1), about 25° C., read-out: approximate solubility): 3000 to 10000 µg/mL; solubility ([2]; aqueous with cosolvent or surfactant or cyclodextrin, MeCN/water (1:1), about 25° C., read-out: approximate solubility): > 25000 µg/mL; solubility ([2]; aqueous with cosolvent or surfactant or cyclodextrin, THF/water (1:1), about 25° C., read-out: approximate solubility): > 25000 µg/mL; solubility ([2]; aqueous with cosolvent or surfactant or cyclodextrin, acetonitrile:water, solvent system for scaleup, read-out: solubility): > 50000 µg/mL; solubility ([2]; organic solvent or mixture, CH2Cl2, about 25° C., read-out: approximate solubility): 3000 to 10000 µg/mL; solubility ([2]; organic solvent or mixture, MeOH, about 25° C., read-out: approximate solubility): 3000 to 10000 µg/mL; solubility ([2]; organic solvent or mixture, THF, about 25° C., read-out: approximate solubility): 3000 to 10000 µg/mL; solubility ([2]; organic solvent or mixture, other organic solvents tested, about 25° C., read-out: approximate solubility): < 3000 µg/mL; solubility ([2]; water, about 25° C., read-out: approximate solubility): 3000 to 10000 µg/mL; XRPD Result after equilibration ([3]; slurry at 50° C., 2-Propanol): Form A1; XRPD Result after equilibration ([3]; slurry at 50° C., Acetone): Form A1; XRPD Result after equilibration ([3]; slurry at 50° C., Acetonitrile): Form A1; XRPD Result after equilibration ([3]; slurry at 50° C., Acetonitrile/Water (1:1)): Form A + Form A1; XRPD Result after equilibration ([3]; slurry at 50° C., Ethanol): Form A1; XRPD Result after equilibration ([3]; slurry at 50° C., Ethanol/Water (1:1)): Form A + Form A1; XRPD Result after equilibration ([3]; slurry at 50° C., Ethyl acetate): Form A1; XRPD Result after equilibration ([3]; slurry at 50° C., Heptane): Form A1; XRPD Result after equilibration ([3]; slurry at 50° C., Methanol): Form A1; XRPD Result after equilibration ([3]; slurry at 50° C., Methyl ethyl ketone): Form A1; XRPD Result after equilibration ([3]; slurry at 50° C., Tetrahydrofuran): Form A1; XRPD Result after equilibration ([3]; slurry at 50° C., Tetrahydrofuran/Water (1:1)): Form A1; XRPD Result after equilibration ([3]; slurry at 50° C., Toluene): Form A1; XRPD Result after equilibration ([3]; slurry at 50° C., Water): Form A + Form A1; XRPD Result after equilibration ([3]; slurry at 50° C., n-Butanol): Form A1; XRPD Result after equilibration ([3]; slurry at room temperature, 2-Propanol): Form A1; XRPD Result after equilibration ([3]; slurry at room temperature, Acetone): Form A1; XRPD Result after equilibration ([3]; slurry at room temperature, Acetonitrile): Form A1; XRPD Result after equilibration ([3]; slurry at room temperature, Acetonitrile/Water (1:1)): Form A + Form A1; XRPD Result after equilibration ([3]; slurry at room temperature, Ethanol): Form A1; XRPD Result after equilibration ([3]; slurry at room temperature, Ethanol/Water (1:1)): Form A + Form A1; XRPD Result after equilibration ([3]; slurry at room temperature, Ethyl acetate): Form A1; XRPD Result after equilibration ([3]; slurry at room temperature, Heptane): Form A1; XRPD Result after equilibration ([3]; slurry at room temperature, Methanol): Form A1; XRPD Result after equilibration ([3]; slurry at room temperature, Methyl ethyl ketone): Form A1; XRPD Result after equilibration ([3]; slurry at room temperature, Methyl t-butyl ether): Form A1; XRPD Result after equilibration ([3]; slurry at room temperature, Methylene chloride): Form A1; XRPD Result after equilibration ([3]; slurry at room temperature, Tetrahydrofuran): Form A1; XRPD Result after equilibration ([3]; slurry at room temperature, Tetrahydrofuran/Water (1:1)): Form A + Form A1; XRPD Result after equilibration ([3]; slurry at room temperature, Toluene): Form A1; XRPD Result after equilibration ([3]; slurry at room temperature, Water): Form A + Form A1; XRPD Result after equilibration ([3]; slurry at room temperature, n-Butanol): Form A1; chemical stability upon storage ([4]; 40° C. and 75% relative humidity (RH)): chemically stable; chemical stability upon storage ([4]; 40° C. under a nitrogen atmosphere): chemically stable; chemical stability upon storage ([4]; 40° C. under vacuum): chemically stable; chemical stability upon storage ([4]; 60° C. in a closed container): chemically stable; chemical stability upon storage ([4]; room temperature, exposed to air and light, for 6 weeks): chemically stable; XRPD Result after evaporation ([5]; evaporation at 50° C., Acetonitrile/Water (1:1)): Form A1; XRPD Result after evaporation ([5]; evaporation at 50° C., Ethanol/Water (1:1)): Form A1; XRPD Result after evaporation ([5]; evaporation at 50° C., Methanol): Form A1; XRPD Result after evaporation ([5]; evaporation at 50° C., Tetrahydrofuran/Water (1:1), hydrochloride): Amorphous; XRPD Result after evaporation ([5]; evaporation at 50° C., Water): Form A1; XRPD Result after evaporation ([5]; evaporation at room temperature, Acetonitrile/Water (1:1)): Form A1; XRPD Result after evaporation ([5]; evaporation at room temperature, Ethanol/Water (1:1)): Form A1; XRPD Result after evaporation ([5]; evaporation at room temperature, Methanol, hydrochloride): Partial or complete salt dissociation; also recorded: Form A + Form A1; XRPD Result after evaporation ([5]; evaporation at room temperature, THF): Partial or complete salt dissociation; XRPD Result after evaporation ([5]; evaporation at room temperature, Tetrahydrofuran/Water (1:1), hydrochloride): Partial or complete salt dissociation; also recorded: Form A + Form A1; XRPD Result after evaporation ([5]; evaporation at room temperature, Water): Form A1; XRPD Result after recrystallization ([6]; EtOH/0.1N HCl): Form A1; XRPD Result after recrystallization ([6]; MeCN/H2O, hydrochloride): Form A1 + Form A; XRPD Result after recrystallization ([6]; MeOH/0.1N HCl): Form A1; XRPD Result after recrystallization ([6]; THF/H2O, hydrochloride): Complete salt dissociation; also recorded: Form A
